ChEMBL document CHEMBL5154912, “Penicillin Derivatives Inhibit the SARS-CoV-2 Main Protease by Reaction with Its Nucleophilic Cysteine” (J Med Chem, 2022)
Active and inactive are the calls of the source. No cut-off for these calls is given here.

Tests used:
[1] = biological target: Replicase polyprotein 1ab (Severe acute respiratory syndrome coronavirus 2) (UniProt P0DTD1); assay: Inhibition of recombinant SARS-CoV-2 Main protease at Cys145 residue by covalent modification at 33 uM incubated for 45 mins by MS analysis
[2] = biological target: Replicase polyprotein 1ab (Severe acute respiratory syndrome coronavirus 2) (UniProt P0DTD1); assay: Inhibition of recombinant SARS-CoV-2 Main protease at Cys145 residue by covalent modification at 10 uM incubated for 45 mins by SPE-MS analysis
[3] = biological target: Replicase polyprotein 1ab (Severe acute respiratory syndrome coronavirus 2) (UniProt P0DTD1); assay: Inhibition of recombinant SARS-CoV-2 Main protease at Cys145 residue by non-covalent binding incubated for 45 mins by MS analysis
[4] = biological target: Replicase polyprotein 1ab (Severe acute respiratory syndrome coronavirus 2, UniProt P0DTD1); assay: Inhibition of recombinant SARS-CoV-2 Main protease using ALNDFSNSGSDVLYQPPQTSITSAVLQ/SGFRKMAFPS-NH2 as substrate preincubated for 45 to 75 mins followed by substrate addition measured after 6 mins by SPE-MS inhibition assay

Question: With `C#CCOC(=O)[C@@H]1N2C(=O)[C@@H](NC(=O)COc3ccccc3)[C@H]2S(=O)(=O)C1(C)C` as the compound, how does the inhibition [1] read?
Answer: Active

Question: For `CC1(C)[C@H](C(=O)OCc2ccccc2)N2C(=O)[C@@H](NC(=O)COc3ccccc3)[C@H]2S1(=O)=O`, which inhibition [2] is on record?
Answer: Active

Question: With `CC1(C)[C@H](C(=O)OCc2ccccc2)N2C(=O)[C@@H](NC(=O)COc3ccccc3)C[C@H]2S1(=O)=O` as the compound, how does the inhibition [3] read?
Answer: Active

Question: `CC1(C)[C@H](C(=O)OCOc2ccccc2)N2C(=O)[C@@H](NC(=O)COc3ccccc3)[C@H]2S1(=O)=O` was tested. Which IC50 [4] did it give?
Answer: 6.6 µM
